Measured values as given in PMC12410758, “A novel sulfamoylphenyl-dihydro-thiadiazole derivative as a dual EGFR and carbonic anhydrase inhibitor for cancer therapy” (PLOS One, 2025).
Like-named read-outs stand apart in the source and are kept apart here.

Columns and labels:
EGFR [1] = target: T1, EGFR (Homo sapiens, UniProt P00533); parameters: method as in PMID 35896557; settings: read-out: EGFR inhibition IC50; cited from earlier work
T1 construct: purchased BPS Bioscience, USA

MDA-MB-231 cells [2] = tested on: MDA-MB-231 cells; parameters: method as in PMID 35896557; settings: cited from earlier work
MDA-MB-231 = tested on: MDA-MB-231; parameters: method as in PMID 35896557; settings: read-out: anti-proliferative IC50, MDA-MB-231; cited from earlier work
T-47D = tested on: T-47D; parameters: method as in PMID 35896557; settings: read-out: anti-proliferative IC50, T-47D; cited from earlier work
MDA-MB-231 cells [3] = assay: MTT cytotoxicity, MDA-MB-231; settings: for IC50: read-out: In vitro Cytotoxicity IC50 (µM) MDA-231, mean ± SEM of three independent experiments; for Average of Relative viability of cells (%) MDA-231: 24 h
Protocol: (§1) The cell lines mentioned above were used to determine the inhibitory effects of compounds on cell growth
(§2) using the MTT assay. This colorimetric assay is based on the conversion of the yellow tetrazolium bromide (MTT) to a purple formazan derivative by mitochondrial succinate dehydrogenase in viable cells. Cell lines
(§3) Antibiotics added were 100 units/ml penicillin and 100µg/ml streptomycin at 37 C in a 5% Co2 incubator. The cell lines were seedesin a 96-well
(§4) plate at a density of 1.0x10^4 cells/well. at 37 C for 48 h under 5% Co2. After incubation the cells were treated
(§5) with different concentration of compounds and incubated for 24 h. After 24 h of drug treatment, 20 µl of MTT solution at 5mg/ml was added and incubated for 4 h. Dimethyl sulfoxide (DMSO) in volume of 100 µl is
(§6) added into each well to dissolve the purple formazan formed. The colorimetric assay is measured and recorded
(§7) The relative cell viability in percentage was
(§8) calculated as (A570 of treated samples/A570 of untreated sample) X 100.

[4] = MTT safety assay, non-cancerous Vero cells; type: cell-based; settings: African green monkey, mean ± SEM of three independent experiments, read-out: In vitro Cytotoxicity IC50 (µM) Vero
Protocol: The cell line (Vero) was obtained from ATCC via Holding company for biological products and vaccines
(VACSERA) , Cairo, Egypt.
The different cell line mentioned above were used to determine the inhibitory effects of compounds on c ell growth using the MTT assay. This colorimetric assay is based on the conversion of the yellow tetrazolium
bromide (MTT) to a purple formazan derivative by mitochondrial succinate dehydrogenase in viable cells.
Antibiotics added were 100
units/ml penicillin and 100µg/ml streptomycin at 37 C in a 5% Co2 incubator. The cellswere seedesin a 96-
well plate at a density of 1.0x10^4 cells/well.at 37 C for 48 h under 5% Co2. After incubation the cells were treated with different concentration of compounds and incubated for 24 h. After 24 h of drug treatment, 20 µl
of MTT solution at 5mg/ml was added and incubated for 4 h. Dimethyl sulfoxide(DMSO) in volume of 100µl
is added into each well to dissolve the purple formazan formed. The colorimetric assay is measured and
The relative cell viability in percentage
was calculated as (A570 of treated samples/A570 of untreated sample) X 100.

MCF-7 cells = assay: MTT cytotoxicity, MCF-7; settings: for IC50: read-out: In vitro Cytotoxicity IC50 (µM) MCF-7, mean ± SEM of three independent experiments; for Average of Relative viability of cells (%) MCF-7: 24 h
Protocol: as §1, §2, §3, §4, §5, §6, §7, §8

EGFR [5] = target: T1, EGFR; assay: In vitro EGFR inhibition (EGFR Kinase Assay Kit, BPS Bioscience); type: biochemical; settings: mean ± SEM of three independent experiments
Protocol: (§9) • The in vitro inhibitory activity of the tested compounds against EGFR was accomplished using EGFR
(§10) Kinase Assay Kit (BPS Bioscience, USA) at different dilutions of 1000, 300, 100, 30, 10, 3, 1, and 0.3 nM.
In vitro carbonic anhydrase inhibition

MDA-MB-231 cells [6] = assay: Apoptosis analysis, Annexin V-FITC/PI flow cytometry
Protocol: Apoptosis detection was carried out using Annexin V fluorescein isothiocyanate (V-FITC)/PI kit according to the reported procedures. MDA-MB-231cells cells were seeded and incubated for 24 h, then treated with
The cells were then collected, washed 3 times with PBS, fixed with ice-
cold absolute ethanol (70%) and stained with Annexin-V-FITC/propidium iodide (PI) using a double staining
kit for 20 min in the dark. Epics XL-MCL™ Flow Cytometer was used to evaluate the apoptosis.

MDA-MB-231 cells [7] = assay: Cell cycle analysis, PI flow cytometry; type: cell-based; settings: 16.13 µM, 48 h
hCA_IX = target: T2, hCA_IX (Homo sapiens, UniProt Q16790); assay: In vitro carbonic anhydrase (IX) inhibition (assay kit, BPS Bioscience); type: biochemical; settings: mean ± SEM of three independent experiments
T2 construct: purchased BPS Bioscience, USA
Protocol: as §9, §10
In vitro carbonic anhydrase inhibition

hCA_XII = target: T3, hCA_XII (Homo sapiens, UniProt O43570); assay: In vitro carbonic anhydrase (XII) inhibition (assay kit, BPS Bioscience); type: biochemical; settings: mean ± SEM of three independent experiments
T3 construct: purchased BPS Bioscience, USA
T3 sequence (O43570 25-354): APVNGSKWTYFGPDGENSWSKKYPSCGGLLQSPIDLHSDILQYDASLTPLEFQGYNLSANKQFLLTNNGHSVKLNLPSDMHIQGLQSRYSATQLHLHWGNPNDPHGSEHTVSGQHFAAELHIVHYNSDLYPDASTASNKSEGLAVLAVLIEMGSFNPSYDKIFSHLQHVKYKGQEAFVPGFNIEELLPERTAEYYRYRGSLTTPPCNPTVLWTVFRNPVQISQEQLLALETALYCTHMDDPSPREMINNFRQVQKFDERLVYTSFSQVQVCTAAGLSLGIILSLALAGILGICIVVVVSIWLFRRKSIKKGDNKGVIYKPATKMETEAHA

MDA-MB-231 cells [8] = assay: qRT-PCR of apoptotic markers in MDA-MB-231 cells; settings: 16.13 µM, 72 h, control set to 1, mean ± SEM
Protocol: Quantitative Reverse Transcription-Poly¬merase Chain Reaction (qRT-PCR) Analysis
Cells were seeded in T-25 cm2 tissue culture flasks 24h before treatment with DMSO vehicle (0.01%) or
Total RNA was extracted, reverse transcribed, and assayed
for BAX, Bcl-2, caspases-8, and caspases-9 genes expression by quantitative RT-PCR. ß-actin serves as the
housekeeping gene. The quantity of BAX, Bcl-2, Caspase-8 and Caspase-9 mRNA in control and compound
Total RNA from vehicle-treated control
(0.01% DMSO) and 14-treated MDA-231 cells were extracted as-per the manufacturer instructi¬ons (RNeasy
mini kit, Qiagen, Germany). After RNA extraction, cDNA was prepared using the Revert Aid First Strand
cDNA Synthesis kit (Thermo Scientific, USA). Amplification of target cDNA for apoptosis markers and ß-
actin [as a normalization (housekeeping) gene] was done using one-step RT-PCR SYBR® Green kit Master Mix (Bio‐Rad Laboratories, USA) on Rotor-Gene Q real-time PCR thermal cycler instrument. cDNA (2 μl
aliquots) was mixed with 1 μl of forward primer, 1 μl reverse primer (Table below), 10 μl master mixture,
and the reaction volume was completed to 20 μl with nuclease-free water. All experiments were performed in

T1 sequence (P00533 25-1210): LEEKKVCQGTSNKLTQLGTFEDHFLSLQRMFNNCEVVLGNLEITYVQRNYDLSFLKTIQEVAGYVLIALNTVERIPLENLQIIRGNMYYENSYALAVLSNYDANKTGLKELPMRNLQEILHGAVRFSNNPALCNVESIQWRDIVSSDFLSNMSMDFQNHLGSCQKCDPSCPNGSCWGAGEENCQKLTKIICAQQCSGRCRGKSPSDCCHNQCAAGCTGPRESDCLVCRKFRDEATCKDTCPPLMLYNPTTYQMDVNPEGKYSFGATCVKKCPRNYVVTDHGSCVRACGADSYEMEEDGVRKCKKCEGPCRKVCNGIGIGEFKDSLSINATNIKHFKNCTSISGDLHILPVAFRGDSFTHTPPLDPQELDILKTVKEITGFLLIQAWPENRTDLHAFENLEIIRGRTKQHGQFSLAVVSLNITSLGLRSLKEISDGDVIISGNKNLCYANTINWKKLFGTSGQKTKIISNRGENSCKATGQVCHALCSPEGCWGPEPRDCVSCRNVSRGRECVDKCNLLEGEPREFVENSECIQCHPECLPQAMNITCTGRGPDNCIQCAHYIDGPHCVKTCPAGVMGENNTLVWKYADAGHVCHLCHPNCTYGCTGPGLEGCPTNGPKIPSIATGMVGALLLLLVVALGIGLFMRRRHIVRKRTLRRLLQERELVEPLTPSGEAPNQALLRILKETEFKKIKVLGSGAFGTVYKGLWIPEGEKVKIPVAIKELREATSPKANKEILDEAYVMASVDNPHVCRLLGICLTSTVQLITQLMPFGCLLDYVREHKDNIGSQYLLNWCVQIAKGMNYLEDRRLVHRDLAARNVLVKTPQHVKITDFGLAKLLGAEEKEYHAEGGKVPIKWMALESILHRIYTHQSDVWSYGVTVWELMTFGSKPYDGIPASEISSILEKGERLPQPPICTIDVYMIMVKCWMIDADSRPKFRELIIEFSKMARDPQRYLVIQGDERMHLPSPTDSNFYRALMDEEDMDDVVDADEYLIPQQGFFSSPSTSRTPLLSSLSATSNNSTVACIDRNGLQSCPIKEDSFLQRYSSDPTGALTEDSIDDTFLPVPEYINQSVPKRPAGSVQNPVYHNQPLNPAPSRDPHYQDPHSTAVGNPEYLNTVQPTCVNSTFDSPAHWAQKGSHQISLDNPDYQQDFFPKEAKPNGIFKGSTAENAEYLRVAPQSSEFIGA

COc1ccc(/C=C2/SC(N3N=C(c4cccc5ccccc45)CC3c3ccc(F)cc3)=NC2=O)cc1O (centres unmarked) [compound III]
IC50 (EGFR [1]): 0.267 µM | apoptosis induction (MDA-MB-231 cells [2]): induced apoptosis | cell cycle arrest phase (MDA-MB-231 cells [2]): G2/M phase | IC50 (MDA-MB-231): 3.14 µM | IC50 (T-47D): 0.62 µM

CC(=O)Nc1nnc(S(N)(=O)=O)s1 [Acetazolamide, reference compound]
IC50 (MDA-MB-231 cells [3]): 7.64 ± 0.4 µM | IC50 at 24 h [4]: 77.57 ± 0.57 µM | IC50 (MCF-7 cells): 7.26 ± 0.3 µM

CCOC(=O)c1nn(-c2ccc(S(N)(=O)=O)cc2)/c(=N/N=C(\C)c2ccc(NC(C)=O)cc2)s1 [Compound 14, Ethyl (Z)-5-(((E)-1-(4-acetamidophenyl)ethylidene)hydrazineylidene)-4-(4-sulfamoylphenyl)-4,5-dihydro-1,3,4-thiadiazole-2-carboxylate]
Average of Relative viability of cells (%) MDA-231 (MDA-MB-231 cells [3]; 1.56 µM): 100% | Average of Relative viability of cells (%) MDA-231 (MDA-MB-231 cells [3]; 3.125 µM): 86.3% | Average of Relative viability of cells (%) MDA-231 (MDA-MB-231 cells [3]; 6.25 µM): 69.9% | Average of Relative viability of cells (%) MDA-231 (MDA-MB-231 cells [3]; 12.5 µM): 51.0% | Average of Relative viability of cells (%) MDA-231 (MDA-MB-231 cells [3]; 25 µM): 38.6% | Average of Relative viability of cells (%) MDA-231 (MDA-MB-231 cells [3]; 50 µM): 26.1% | Average of Relative viability of cells (%) MDA-231 (MDA-MB-231 cells [3]; 100 µM): 18.5% | IC50 (MDA-MB-231 cells [3]): 16.1 ± 1.2 µM | IC50 (EGFR [5]): 10.1 ± 0.29 nM | Apoptosis Late (MDA-MB-231 cells [6]; 16.13 µM, 48 h, MDA-MB-231, untreated 0.32): 58.27% | Necrosis (MDA-MB-231 cells [6]; 16.13 µM, 48 h, MDA-MB-231, untreated 0.45): 0.03% | Apoptosis Early (MDA-MB-231 cells [6]; 16.13 µM, 48 h, MDA-MB-231, untreated 3.84): 22.50% | viability at 16.13 µM (MDA-MB-231 cells [6]; Homo sapiens, MDA-MB-231, 48 h, read-out: Viable cells): 19.2% | Cell cycle distribution (%) % G2/M (MDA-MB-231 cells [7]; untreated 10.59): 7.94% | Cell cycle distribution (%) %Sub-G1 (MDA-MB-231 cells [7]; untreated 19.48): 19.18% | Cell cycle distribution (%) %S (MDA-MB-231 cells [7]; untreated 24.95): 23.78% | Cell cycle distribution (%) %G1 (MDA-MB-231 cells [7]; untreated 44.98): 49.10% | IC50 (hCA_IX): 79 ± 0.3 nM | IC50 (hCA_XII): 58 ± 0.3 nM | IC50 at 24 h [4]: 148.3 ± 1.22 µM | Average of Relative viability of cells (%) MCF-7 (MCF-7 cells; 1.56 µM): 100% | Average of Relative viability of cells (%) MCF-7 (MCF-7 cells; 3.125 µM): 90.3% | Average of Relative viability of cells (%) MCF-7 (MCF-7 cells; 6.25 µM): 71.7% | Average of Relative viability of cells (%) MCF-7 (MCF-7 cells; 12.5 µM): 57.6% | Average of Relative viability of cells (%) MCF-7 (MCF-7 cells; 25 µM): 46.5% | Average of Relative viability of cells (%) MCF-7 (MCF-7 cells; 50 µM): 35.1% | Average of Relative viability of cells (%) MCF-7 (MCF-7 cells; 100 µM): 24.4% | IC50 (MCF-7 cells): 22.6 ± 1.5 µM | Gene expression (Fold Change) BAX (MDA-MB-231 cells [8]): 3.06 ± 0.18 Fold Change | Gene expression (Fold Change) BAX/Bcl-2 ratio (MDA-MB-231 cells [8]): 5.56 ± 0.69 Fold Change | Gene expression (Fold Change) Bcl-2 (MDA-MB-231 cells [8]): 0.55 ± 0.05 Fold Change | Gene expression (Fold Change) Caspases-8 (MDA-MB-231 cells [8]): 2.37 ± 0.07 Fold Change | Gene expression (Fold Change) Caspases-9 (MDA-MB-231 cells [8]): 2.26 ± 0.15 Fold Change
